Assay [1] relates to endogenous γ8-containing AMPA receptor currents. Put plainly: Whole-cell electrophysiology on acutely-dissociated mouse hippocampal neurons. In kind it is cell-based. The conditions noted are these: 10 mM glutamate, 500 ms, held at -60 mV. As for the experimental part: The effects of selected compounds upon endogenous γ 8-containing AMPA receptor currents was evaluated using whole-cell electrophysiology on acutely-dissociated mouse hippocampal neurons. Hippocampus was chosen for this assay, since CACNG8 (the protein encoded by this gene is a type I transmembrane AMPA receptor regulatory protein i.e., TARP) is preferentially enriched in this brain region (Tomita et al. (2003). “Functional studies and distribution define a family of transmembrane AMPA receptor regulatory proteins.” J Cell Biol 161(4): 805-816.2003).
Hippocampi were dissected from C57black6 mice at 4-12 weeks postnatal, following the protocol described by Brewer (Brewer, G. J. (1997). “Isolation and culture of adult rat hippocampal neurons.” Journal of Neuroscience Methods 71(2): 143-155). The following is a brief summary of the procedure. Mice were asphyxiated with CO2 then decapitated. The brain was rapidly removed, then placed into ice-cold HABG medium. The recipe for HABG medium was: HibernateA supplemented with 2% B27 and 0.5 mM Glutamax (all reagents from Life Technologies). Hippocampi were micro-dissected from the brains, then washed with HABG without calcium (Hibernate A minus Calcium, BrainBits; 2% B27, Life Technologies; 0.5 mM glutamax, Life Technologies).
The hippocampi were then transferred to HABG without calcium, supplemented with 2 mg/mL papain (Worthington Biochemical). They were incubated at 30° C. on a roller for 40 min, then gently triturated with a fire-polished glass pipette. The supernatant containing dissociated neurons was collected, then centrifuged for 2 min at 200 g. The cell pellet was collected, and then resuspended in 8 mL of HABG. Live cells were counted, then plated onto 12 mm glass coverslips in HABG (2 mL) in 24-well plates at a density of 50-100 cells per coverslip. These cells were maintained at room temperature until use.
Whole-cell electrophysiology was performed using 1.5 mm diameter glass capillary tubes (World Precision Instruments TW150-4), pulled to a fine tip with a Sutter P-97 micropipette puller. The intracellular buffer was 90 mM KF, 30 mM KCl, 10 mM HEPES, and 5 mM EGTA, pH 7.4, 290mOs. The extracellular buffer was 135 mM NaCl, 4 mM KCl, 2 mM CaCl2, 1 mM MgCl2, 5 mM glucose, 10 mM HEPES, pH 7.4, 300 mOs. The open-tip resistances of the micropipettes using these solutions were 2-4 MΩ. Whole-cell recordings of neuron cell bodies were performed in voltage-clamp mode using an Axon Axopatch 200B amplifier. Whole-cell current was measured holding the interior of the cell at −60 mV, using a 5 kHz lowpass filter. The cells were continuously perfused through 7 mm square glass barrels using a solenoid-controlled solution switching device (Warner Instruments, PF-77B). The peak current in response to a 500 ms exposure to 10 mM glutamate every 5 seconds was measured, before and after exposure to test compound.
For analysis, the mean peak current of 5 traces in the presence of test compound was divided by the mean peak current of 5 traces prior to the addition of test compound. Compounds were tested at concentrations at least ten times higher than their estimated potency in the calcium flux assay, in order to ensure near-saturating occupancy of the receptor.

The target of assay [2] is GluA1o-γ8 (GRIA1o-CACNG8 fusion construct; TARP γ8 dependent AMPA receptor) (Homo sapiens (Human), UniProt P42261+Q8WXS5). Put plainly: Calcium flux assay (FLIPR), inhibition of glutamate response of GluA1o-γ8 channel. In kind it is cell-based. The note with it: HEK293 cells stably expressing GRIA1o-CACNG8 fusion; 15 μM glutamate; pIC50 = negative log of IC50 in molar; read-out: GluR1-γ8 (pIC50) (converted). The essentials:
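Potency is the midpoint of a four-parameter logistic fit to control-normalized FLIPR calcium responses elicited by 15 μM glutamate. Stable HEK293 cells carried a fused GluA1o-γ8 construct and were preincubated with compound and calcium dye in pH 7.4 HEPES buffer.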
Background: A change in cytosolic calcium serves as a functional read-out for many receptors and channels.

This is an account of results in patent US10513523B2, “Imidazopyrazines and pyrazolopyrimidines and their use as AMPA receptor modulators” (Janssen Pharmaceutica NV, priority 2015, dated 2019).

Sequence of GluA1o-γ8 (GRIA1o-CACNG8 fusion construct; TARP γ8 dependent AMPA receptor) (P42261 other isoform, or with tags, fused parts or gaps): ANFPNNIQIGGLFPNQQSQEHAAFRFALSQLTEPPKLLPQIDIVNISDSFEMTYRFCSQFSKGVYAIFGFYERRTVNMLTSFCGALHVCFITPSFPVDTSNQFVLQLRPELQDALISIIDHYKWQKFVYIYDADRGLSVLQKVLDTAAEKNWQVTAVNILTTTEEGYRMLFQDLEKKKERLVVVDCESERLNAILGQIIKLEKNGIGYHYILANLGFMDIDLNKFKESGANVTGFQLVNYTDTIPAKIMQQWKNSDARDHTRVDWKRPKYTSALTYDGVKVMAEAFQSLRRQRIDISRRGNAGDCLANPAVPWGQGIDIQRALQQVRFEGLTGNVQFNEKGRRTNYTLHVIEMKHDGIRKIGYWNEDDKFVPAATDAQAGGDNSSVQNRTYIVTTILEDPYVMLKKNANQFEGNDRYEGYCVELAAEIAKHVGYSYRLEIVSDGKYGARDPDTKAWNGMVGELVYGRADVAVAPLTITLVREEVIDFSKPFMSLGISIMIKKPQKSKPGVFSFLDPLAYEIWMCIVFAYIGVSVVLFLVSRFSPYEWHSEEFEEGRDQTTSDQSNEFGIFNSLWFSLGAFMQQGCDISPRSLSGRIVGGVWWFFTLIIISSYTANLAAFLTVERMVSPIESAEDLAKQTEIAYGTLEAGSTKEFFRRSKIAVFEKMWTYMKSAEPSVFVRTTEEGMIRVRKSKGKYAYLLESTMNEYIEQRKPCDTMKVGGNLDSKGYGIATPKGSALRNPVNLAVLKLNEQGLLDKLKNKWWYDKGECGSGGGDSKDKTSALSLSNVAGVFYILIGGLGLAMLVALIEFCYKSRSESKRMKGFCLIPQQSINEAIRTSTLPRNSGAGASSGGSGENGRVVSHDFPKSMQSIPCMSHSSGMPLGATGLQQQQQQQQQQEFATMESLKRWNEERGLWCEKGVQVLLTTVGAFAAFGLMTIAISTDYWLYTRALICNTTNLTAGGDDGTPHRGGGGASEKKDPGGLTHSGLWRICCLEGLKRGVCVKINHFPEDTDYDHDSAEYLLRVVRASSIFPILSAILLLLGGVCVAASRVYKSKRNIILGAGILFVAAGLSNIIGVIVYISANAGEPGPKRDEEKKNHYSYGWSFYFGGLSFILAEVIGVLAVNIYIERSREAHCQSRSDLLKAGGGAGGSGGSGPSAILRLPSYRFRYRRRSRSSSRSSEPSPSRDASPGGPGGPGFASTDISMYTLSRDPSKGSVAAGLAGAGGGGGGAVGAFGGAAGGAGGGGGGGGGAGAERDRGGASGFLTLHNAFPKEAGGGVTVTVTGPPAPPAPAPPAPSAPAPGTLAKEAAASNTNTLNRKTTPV

For `Fc1ccc(-c2nc3c(N4CCOCC4)nccn3c2-c2ccc3[nH]ncc3c2)cc1` [Example 10, 4-[2-(4-Fluorophenyl)-3-(1H-indazol-5-yl)imidazo[1,2-a]pyrazin-8-yl]morpholine], the “peak current (% control)” value in assay [1] (0.1 μM test compound) came to 64%; in assay [1] (1 μM test compound), 74%. Moreover, in assay [2], the IC50 was 0.631 nM.

With `Oc1ccc(-c2c(-c3ccc(F)cc3)nc3c(N4CC5(COC5)C4)nccn23)cc1` [Example 7, 4-[2-(4-Fluorophenyl)-8-(6-oxa-2-azaspiro[3.3]heptan-2-yl)imidazo[1,2-a]pyrazin-3-yl]phenol], the “peak current (% control)” value in assay [1] (10 μM test compound) was determined as 55%. Moreover, in assay [2], the IC50 was 50.1 nM.

With `CC(=O)N1CCN(c2nccn3c(-c4ccc5c(c4)CC(=O)N5)c(-c4ccc(C#N)cc4)nc23)CC1` [Example 107, 4-[8-(4-Acetylpiperazin-1-yl)-3-(2-oxoindolin-5-yl)imidazo[1,2-a]pyrazin-2-yl]benzonitrile], the “peak current (% control)” value in assay [1] (0.1 μM test compound) is 67%. Also, the IC50 in assay [2] is 2.51 nM.

As for `CC(=O)N1CCN(c2nccn3c(-c4ccc(O)cc4)c(-c4ccc(F)cc4)nc23)CC1` [Example 1, 1-[4-[2-(4-Fluorophenyl)-3-(4-hydroxyphenyl)imidazo[1,2-a]pyrazin-8-yl]piperazin-1-yl]ethanone], the “peak current (% control)” value in assay [1] (10 μM test compound) is listed as 81%. Moreover, the IC50 in assay [2] was 6.31 nM.

For the molecule `CC(=O)N1CCN(c2nccn3c(-c4ccc5c(c4)CC(=O)N5)c(Cc4ccccc4)nc23)CC1` [Example 17, 5-[8-(4-Acetylpiperazin-1-yl)-2-benzyl-imidazo[1,2-a]pyrazin-3-yl]indolin-2-one], in assay [1] (0.1 μM test compound), the “peak current (% control)” value is recorded as 68%. Further, the IC50 in assay [2] is 1.26 nM.

In the case of `CC(=O)N1CCN(c2nccn3c(-c4ccc5c(c4)CC(=O)N5)c(-c4ccc(F)cc4)nc23)CC1` [Example 12, 5-[8-(4-Acetylpiperazin-1-yl)-2-(4-fluorophenyl)imidazo[1,2-a]pyrazin-3-yl]indolin-2-one], in assay [1] (0.1 μM test compound), the “peak current (% control)” value is 69%. Moreover, the IC50 in assay [2] is 0.398 nM.

Turning to `O=C1Cc2cc(-c3c(-c4ccc(F)cc4)nc4c(N5CCC(O)CC5)nccn34)ccc2N1` [Example 37, 5-[2-(4-Fluorophenyl)-8-(4-hydroxy-1-piperidyl)imidazo[1,2-a]pyrazin-3-yl]indolin-2-one], the “peak current (% control)” value in assay [1] (0.1 μM test compound) was found to be 66%. In addition, the IC50 in assay [2] is 0.316 nM.

For the molecule `Oc1ccc(-c2c(-c3ccc(F)cc3)nc3c(N4CCOCC4)nccn23)cc1` [Example 83, 4-[2-(4-Fluorophenyl)-8-morpholino-imidazo[1,2-a]pyrazin-3-yl]-phenol], in assay [1] (10 μM test compound), the “peak current (% control)” value worked out at 78%. In assay [2], the IC50 is 12.6 nM.

In the case of `CC(=O)N[C@H]1CCN(c2nccn3c(-c4ccc5[nH]c(=O)[nH]c5c4)c(-c4ccc(F)cc4)nc23)C1` [Example 98, N-[(3S)-1-[2-(4-Fluorophenyl)-3-(2-oxo-1,3-dihydrobenzimidazol-5-yl)imidazo[1,2-a]pyrazin-8-yl]pyrrolidin-3-yl]acetamide], in assay [2], the IC50 was 2.51 nM.

In the case of `CC(C)(C)c1nn2cnc(C(F)(F)F)cc2c1-c1ccc2[nH]c(=O)sc2c1` [Example 232, 6-[2-tert-Butyl-5-(trifluoromethyl)pyrazolo[1,5-c]pyrimidin-3-yl]-3H-1,3-benzothiazol-2-one], the IC50 in assay [2] was 316 nM.

Take `O=C1Cc2cc(-c3c(C4CCC4)nc4c(N5CCOCC5)nccn34)ccc2N1` [Example 90, 5-(2-Cyclobutyl-8-morpholino-imidazo[1,2-a]pyrazin-3-yl)indolin-2-one]: in assay [2], the IC50 is 200 nM.
